Laboratory results taken from the supplement of paper PMC10307832.

Compound: Cn1c(=O)n(-c2ccc(C(C)(C)C#N)cc2)c2c3cc(-c4cnc5ccccc5c4)ccc3ncc21 [Dactolisib] + COc1cc2c(Oc3ccc(NC(=O)C4(C(=O)Nc5ccc(F)cc5)CC4)cc3F)ccnc2cc1OCCCN1CCOCC1 [Foretinib] (partner 0.25 µM)
Assay: relative viability (nuclei count vs DMSO), 5 days (fraction); higher = more cells survive
Details: first compound 0.2 µM
How it was run: (§1)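 Cells from lung cancer lines were seeded into 1536-well plates and, one day later, dosed by pin tool. Treatments were either a single drug or a fixed dose of an anchor drug with five library-drug doses (not always all listed) in √10 steps. After 5 days, nuclei were stained in a one-step fixation (final 0.05% Triton X-100, 1% formaldehyde, 1 ug/ml Hoechst) and counted on 4× images, and relative viability is the treated-to-vehicle nuclei ratio, as the median of duplicate plates.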

Cell Line	relative viability
NCI-H2087	0.33
SK-MES-1	0.397
H3255	0.772
IA-LM	0.453
A549	0.21
SW 900	0.3
NCI-H661	0.459
NCI-H1299	1.06
NCI-H1563	0.651
ABC-1	0.5
NCI-H358	0.165
NCI-H650	0.426

Compound: Cn1c(=O)n(-c2ccc(C(C)(C)C#N)cc2)c2c3cc(-c4cnc5ccccc5c4)ccc3ncc21 [Dactolisib] + Nc1nc2[nH]cc(CCc3ccc(C(=O)N[C@@H](CCC(=O)O)C(=O)O)cc3)c2c(=O)[nH]1 [Pemetrexed] (partner 0.2 µM)
Assay: as above
Details: first compound 0.002 µM
How it was run: as §1

Cell Line	relative viability
NCI-H2342	0.75
NCI-H1650	0.342
NCI-H1993	0.554
SK-LU-1	0.944
NCI-H838	0.25
LCLC-103H	0.437
NCI-H520	0.537
NCI-H2126	0.574
EMC-BAC-2	0.424
NCI-H2085	0.905
HCC-366	0.104
NCI-H1666	0.849
NCI-H596	0.457
LK-2	0.278
NCI-H2087	0.627
NCI-H1648	0.779
SK-MES-1	0.993
H3255	0.568
HCC-44	0.609
NCI-H522	1.08
SW 900	0.498
NCI-H661	0.823
NCI-H1792	0.625
NCI-H1563	0.797
NCI-H358	0.164
NCI-H650	1

Same assay, conditions: first compound 0.006325 µM

Cell Line	relative viability
NCI-H2342	0.833
NCI-H1650	0.418
NCI-H1993	0.496
SK-LU-1	0.913
NCI-H838	0.227
LCLC-103H	0.468
NCI-H520	0.506
NCI-H2126	0.717
EMC-BAC-2	0.39
NCI-H2085	0.884
HCC-366	0.183
NCI-H1666	0.892
NCI-H596	0.428
LK-2	0.263
NCI-H2087	0.684
NCI-H1648	0.739
SK-MES-1	0.837
H3255	0.44
HCC-44	0.645
NCI-H522	0.774
SW 900	0.48
NCI-H661	0.932
NCI-H1792	0.473
NCI-H1563	0.751
NCI-H358	0.164
NCI-H650	0.815

Same assay, conditions: first compound 0.02 µM

Cell Line	relative viability
NCI-H2342	0.721
NCI-H1650	0.385
NCI-H1993	0.49
SK-LU-1	0.874
NCI-H838	0.264
LCLC-103H	0.462
NCI-H520	0.364
NCI-H2126	0.612
EMC-BAC-2	0.448
NCI-H2085	0.811
HCC-366	0.229
NCI-H1666	0.858
NCI-H596	0.513
LK-2	0.249
NCI-H2087	0.625
NCI-H1648	0.896
SK-MES-1	0.847
H3255	0.558
HCC-44	0.596
NCI-H522	1.11
SW 900	0.474
NCI-H661	0.854
NCI-H1792	0.313
NCI-H1563	0.755
NCI-H358	0.159
NCI-H650	0.897

Same assay, conditions: first compound 0.06325 µM

Cell Line	relative viability
NCI-H2342	0.779
NCI-H1650	0.383
NCI-H1993	0.345
SK-LU-1	0.747
NCI-H838	0.203
LCLC-103H	0.393
NCI-H520	0.213
NCI-H2126	0.471
EMC-BAC-2	0.456
NCI-H2085	0.345
HCC-366	0.173
NCI-H1666	0.736
NCI-H596	0.41
LK-2	0.117
NCI-H2087	0.521
NCI-H1648	0.837
SK-MES-1	0.417
H3255	0.464
HCC-44	0.695
NCI-H522	0.927
SW 900	0.259
NCI-H661	0.498
NCI-H1792	0.109
NCI-H1563	0.628
NCI-H358	0.134
NCI-H650	0.723

Same assay, conditions: first compound 0.2 µM

Cell Line	relative viability
NCI-H2342	0.599
NCI-H1650	0.299
NCI-H1993	0.421
SK-LU-1	0.439
NCI-H838	0.165
LCLC-103H	0.379
NCI-H520	0.115
NCI-H2126	0.372
EMC-BAC-2	0.416
NCI-H2085	0.273
HCC-366	0.147
NCI-H1666	0.802
NCI-H596	0.401
LK-2	0.171
NCI-H2087	0.506
NCI-H1648	0.52
SK-MES-1	0.367
H3255	0.474
HCC-44	0.672
NCI-H522	0.851
SW 900	0.271
NCI-H661	0.515
NCI-H1792	0.0622
NCI-H1563	0.512
NCI-H358	0.14
NCI-H650	0.47

Compound: Cn1c(=O)n(-c2ccc(C(C)(C)C#N)cc2)c2c3cc(-c4cnc5ccccc5c4)ccc3ncc21 [Dactolisib] + CC1(C)CCC(c2ccc(Cl)cc2)=C(CN2CCN(c3ccc(C(=O)NS(=O)(=O)c4ccc(N[C@H](CCN5CCOCC5)CSc5ccccc5)c(S(=O)(=O)C(F)(F)F)c4)cc3)CC2)C1 [Navitoclax] (partner 0.5 µM)
Assay: as above
Details: first compound 0.002 µM
How it was run: as §1

Cell Line	relative viability
NCI-H727	0.467
NCI-H1650	1.18
EBC-1	0.408
NCI-H1703	0.875
NCI-H1993	0.827
SK-LU-1	1.14
NCI-H838	1.13
NCI-H520	1.01
NCI-H2126	0.896
EMC-BAC-2	1.19
NCI-H2085	1.17
Calu-6	0.972
HCC-366	1
NCI-H1666	1.3
NCI-H596	0.894
LK-2	0.773
NCI-H2087	0.986
SK-MES-1	1.34
H3255	0.724
IA-LM	0.819
HCC-44	1.06
A549	1.29
NCI-H1299	1.06
NCI-H1792	0.823

Same assay, conditions: first compound 0.006325 µM

Cell Line	relative viability
NCI-H727	0.506
NCI-H1650	0.998
EBC-1	0.417
NCI-H1703	1.03
NCI-H1993	0.846
SK-LU-1	0.627
NCI-H838	0.776
NCI-H520	0.871
NCI-H2126	0.77
EMC-BAC-2	1.13
NCI-H2085	1.01
Calu-6	0.794
HCC-366	0.961
NCI-H1666	0.673
NCI-H596	0.852
LK-2	0.852
NCI-H2087	0.907
SK-MES-1	1.17
H3255	0.488
IA-LM	0.579
HCC-44	0.982
A549	1.05
NCI-H1299	1.1
NCI-H1792	0.692

Same assay, conditions: first compound 0.02 µM

Cell Line	relative viability
NCI-H727	0.341
NCI-H1650	0.83
EBC-1	0.212
NCI-H1703	0.684
NCI-H1993	0.625
SK-LU-1	0.707
NCI-H838	0.474
NCI-H520	0.633
NCI-H2126	0.762
EMC-BAC-2	1.11
NCI-H2085	0.89
Calu-6	0.703
HCC-366	1.07
NCI-H1666	0.927
NCI-H596	0.701
LK-2	0.639
NCI-H2087	1.02
SK-MES-1	1.1
H3255	0.426
IA-LM	0.564
HCC-44	1
A549	0.706
NCI-H1299	1.08
NCI-H1792	0.582

Same assay, conditions: first compound 0.06325 µM

Cell Line	relative viability
NCI-H727	0.248
NCI-H1650	0.337
EBC-1	0.173
NCI-H1703	0.365
NCI-H1993	0.537
SK-LU-1	0.673
NCI-H838	0.205
NCI-H520	0.261
NCI-H2126	0.564
EMC-BAC-2	0.867
NCI-H2085	0.584
Calu-6	0.411
HCC-366	0.67
NCI-H1666	0.667
NCI-H596	0.416
LK-2	0.381
NCI-H2087	0.481
SK-MES-1	0.574
H3255	0.458
IA-LM	0.116
HCC-44	0.266
A549	0.248
NCI-H1299	0.986
NCI-H1792	0.381

Same assay, conditions: first compound 0.2 µM

Cell Line	relative viability
NCI-H727	0.162
NCI-H1650	0.416
EBC-1	0.145
NCI-H1703	0.229
NCI-H1993	0.626
SK-LU-1	0.319
NCI-H838	0.251
NCI-H520	0.184
NCI-H2126	0.399
EMC-BAC-2	0.642
NCI-H2085	0.367
Calu-6	0.259
HCC-366	0.498
NCI-H1666	0.31
NCI-H596	0.171
LK-2	0.282
NCI-H2087	0.429
SK-MES-1	0.55
H3255	0.176
IA-LM	0.0832
HCC-44	0.3
A549	0.104
NCI-H1299	1.03
NCI-H1792	0.181
